Measurements published in article PMC5378937 (The Journal of Pharmacology and Experimental Therapeutics, 2016).
Residue numbers refer to the chain shown, from its start. “Also recorded” adds a separate entry of the source. Where two headings read alike, the source gives them in different places.

Assays:
[1] = biological target: 5-HT3 receptors; design: method as in Ashoor et al., 2013; details: ref Ashoor et al., 2013; cited from earlier work
[2] = tested on: 5-HT-induced contractions in rat trachea; assay: 5-HT-induced contraction of isolated rat trachea; details: granisetron 10 µM
Method: The trachea was removed from male Wistar albino rats (250–350 g), cut into 2-cm lengths, and mounted on a force transducer with a resting tension of 1.0 g in a 10-ml water-jacketed organ bath containing modified Tyrode’s solution (136 mM NaCl, 5 mM KCl, 0.98 mM MgCl2, 0.36 mM NaH2PO4, 2 mM CaCl2, 11.9 mM NaHCO3, 5.5 mM glucose, pH 7.4) continuously aerated with 95% O2/5% CO2 and kept at 37°C. Contractile responses were recorded using a force transducer (model FT03; Grass Technologies, Quincy, MA) connected to a PC-based data acquisition system (Dataq, PM-1000; DATAQ Instruments Inc., Akron, OH). The experiments were conducted after an equilibration period of 60 minutes and three successive similar contractile responses. Experiments were approved by the local animal ethics committee (protocol number 00084/2014.2).

[3] = tested on: 5-HT-evoked contractions of guinea pig ileum; assay: 5-HT-evoked contraction of isolated guinea pig ileum
Method: Guinea pig ileum was obtained from adult male guinea pigs (200–300 g). The ileum was cut into 1-cm lengths and mounted longitudinally to a force transducer with a resting tension of 0.5 g in a 10-ml water-jacketed organ bath containing Krebs’ buffer (118 mM NaCl, 4.7 mM KCl, 1.2 mM MgSO4, 1.25 mM CaCl2, 11 mM glucose, 10 mM HEPES, pH 7.2) continuously aerated with 95% O2/5% CO2 and kept at 37°C. The ileum segments were allowed to equilibrate for 10 minutes before the experiments were started, and contractile responses were recorded using LabChart 6 (ADInstruments Ltd., Oxford, UK). […] Following drug applications, the organ bath was flushed twice with fresh Krebs’ solution, and the ileum was allowed to recover for 10 minutes prior to the next application. […] Experiments involving animals were approved by the University of Cambridge Animal Welfare and Ethical Review Body (reference: PHARM 004/15).

[4] = biological target: T1, 5-HT3AT6'S receptors (Homo sapiens, UniProt P46098, T279S); assay: Two-electrode voltage clamp in oocytes expressing the 5-HT3AT6'S receptor mutant; assay type: cell-based; details: for ΔpEC50 (ΔpIC50 for inhibitors, T6'S vs wild-type): 2 µM 5-HT; for IC50: read-out: pEC50 (pIC50 for inhibitors) at T6'S mutant (converted)
T1 construct: expressed in transfected cells; host or cells: Xenopus oocytes
T1 sequence (P46098 24-478 T279S): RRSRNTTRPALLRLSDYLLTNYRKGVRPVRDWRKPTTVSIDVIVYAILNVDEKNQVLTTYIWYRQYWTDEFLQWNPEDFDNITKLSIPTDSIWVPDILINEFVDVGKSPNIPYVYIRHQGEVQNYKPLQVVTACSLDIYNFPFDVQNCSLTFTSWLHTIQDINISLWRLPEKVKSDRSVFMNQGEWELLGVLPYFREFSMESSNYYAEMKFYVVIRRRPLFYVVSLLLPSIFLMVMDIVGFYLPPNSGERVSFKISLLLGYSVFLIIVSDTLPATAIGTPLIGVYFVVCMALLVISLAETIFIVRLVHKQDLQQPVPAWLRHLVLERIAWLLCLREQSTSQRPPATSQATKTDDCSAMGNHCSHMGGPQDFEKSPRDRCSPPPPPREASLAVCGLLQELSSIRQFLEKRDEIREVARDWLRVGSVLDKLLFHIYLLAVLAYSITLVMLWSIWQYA
Method: Microelectrodes were fabricated from borosilicate glass (GC120TF-10; Harvard Apparatus, Edenbridge, Kent, UK) using a two-stage horizontal pull (P-97; Sutter Instrument Company, Novato, CA) and filled with 3 M KCl. Pipette resistances ranged from 0.8 to 2.0 MΩ. Oocytes were placed in a perfusion chamber made from 2-mm-wide × 30-mm-long silicon tubing that was cut in half lengthways (total volume ∼0.1 ml), and were perfused with ND96 at a rate of 12 ml min^−1. Drug application was via a simple gravity-fed system calibrated to run at the same rate. […] A 3-minute wash was used between compound applications. Oils were dissolved in buffer containing 1% DMSO, freshly prepared each day, and constantly stirred during the experiments.
The effects of the compounds on 5-HT3AT6'S receptors were also evaluated. […] Parameters were incorporated into the model that defined changes in pEC50, pIC50, Max0, and pA2 values for 5-HT3AT6'S receptors. These parameters were statistically evaluated as described earlier.
Parameters were included in the model that allowed differences in agonist and inhibitory effects to be quantified and evaluated.

[5] = biological target: T2, human 5-HT3 receptors (5-HT3A) (Homo sapiens, UniProt P46098); assay: Two-electrode voltage clamp of 5-HT-evoked currents in Xenopus oocytes expressing 5-HT3 receptors, nonlinear mixed-effects modeling
T2 sequence (P46098 24-478): T1 sequence (P46098 24-478 T279S) with S256T
Method: 5-HT3A subunit cDNA was cloned into pGEMHE for oocyte expression. cRNA was transcribed in vitro from a linearized plasmid cDNA template using the mMessage mMachine Ultra T7 Transcription kit (Ambion, Austin, TX). Stage V and VI oocytes were injected with 50 nl of 100–500 ng µl^−1 cRNA (5–25 ng injected), and currents were recorded 1–4 days postinjection.
Specifically, NONMEM allows the modeling of the relationship between drug and response, and importantly, the random between-oocyte variance, which is considerable. NONMEM enabled a single unified model to be created that included all electrophysiological agonist and antagonist data. […] The ability to allow for between-oocyte variance enabled raw peak currents to be analyzed, rather than normalized values. Normalization can obscure relationships between parameters, resulting in inaccurate and imprecise estimates of drug effects. Differences in peak currents and agonist potency between different oocytes were modeled with population variances (ω^2) associated with model parameters.
A structural model defined the relationship between the independent variables (i.e., agonist and antagonist concentrations) and the peak current (dependent variable).
The effect of time on the agonist response was modeled linearly as:(2) [drawing 2] where Max0 = as in eq. 1; MaxT = PRED when [A] = ∞ at time T; T = time (hours) from start of individual experiment; and nT = change in response per hour expressed as a proportion of the response at T = 0 (nT = 0 represents no change; nT = −0.1 represents a reduction of 10%, and nT = 0.1 represents an increase of 10% per hour).
The effect of the compounds on MaxT was modeled as follows:(3) [drawing 3] where MaxT = PRED when [A] = ∞ in the absence of drug D at time T (eq. 2); Max(D) = PRED when [A] = ∞ in the presence of drug D at time T; [D] = concentration of inhibitor drug; pIC50 = −log10[D] in the presence of which Max(D) = MaxT/2; and nH(D) = inhibitor Hill coefficient. (This model assumes that, when [D] = ∞, PRED = 0.)

[6] = biological target: T3, 5-HT3 receptor (Homo sapiens, UniProt P46098); assay: Dual application with bilobalide or diltiazem (allotopic vs syntopic inhibition), oocytes; assay type: cell-based; design: expressed in transfected cells; host or cells: Xenopus oocytes injected with cRNA transcribed from pGEMHE; details: 100 µM 5-HT
T3 sequence (P46098 24-478): T1 sequence (P46098 24-478 T279S) with S256T
Method: Dual application studies were performed as previously described ([Jarvis and Thompson, 2013]). This is a simple method to determine whether two channel blockers share the same binding site (syntopic inhibition) or bind to separate locations (allotopic inhibition). […] Concentrations of the test compounds, BB and DTZ, were selected such that they caused approximately 62% inhibition when used alone. From the results of these experiments, predicted levels of inhibition were derived for both allotopic and syntopic modes of action. These predictions were compared with data obtained experimentally using the same concentrations of the inhibitors acting together. For each oocyte, the change in the amplitude of the 5-HT response over time was monitored and taken into account. Inhibition by drugs was quantified in relation to interpolated control responses for each time point.
The dual application measurements were compared statistically with allotopic and syntopic predictions using a two-way analysis of variance in which the oocyte was included as a random effect (SPSS Statistics 20; IBM, Armonk, NY). Post-hoc testing was with Dunnett’s method, comparing the measured data to each of the predictions.

[7] = biological target: T3, 5-HT3 receptor; assay: Flow cytometry competition binding with 10 nM fluorescent granisetron (G-FL) in HEK293 cells; design: expressed in transfected cells; host or cells: HEK293 cells, transient transfection with pcDNA3.1 construct; details: concentrations up to 1 mM, n = 3
Method: 5-HT3A subunit cDNA was cloned into pcDNA3.1 for expression in HEK293 cells (ThermoFisher Scientific, Waltham, MA). Cells were transiently transfected with this cDNA using polyethyleneimine (25 kDa, linear, powder; Polysciences Inc., Eppelheim, Germany). Thirty microliters of polyethyleneimine (1 mg ml^−1), 5 μg of cDNA, and 1 ml of DMEM were incubated for 10 minutes at room temperature, added dropwise to a 90-mm plate of 70–80% confluent HEK293 cells, and incubated for 2–3 days before use.
HEK293 cells expressing the 5-HT3 receptor were grown in monolayers and harvested from a 90-mm culture dish using 10 ml of Trypsin-EDTA (Sigma-Aldrich) for 10 minutes at 37°C. Digestion was terminated by the addition of 25 ml DMEM + 10% fetal bovine serum, and cells were pelleted at low speed for 2 minutes. […] Competition binding was measured by incubating HEK293 cells with different concentrations of nonlabeled ligands and 10 nM fluorescent granisetron (G-FL). […] The geometric mean was measured at each concentration of test compound and fitted to eq. 1 (see the following section) using a least-squares method (GraphPad Prism v4; GraphPad Software, La Jolla, CA).

[8] = IC50 (inhibition of 5-HT-evoked currents), wild-type, from nonlinear mixed-effects model
[9] = IC50 derived from normalized data, wild-type, normalized data instead of mixed-effects model
[10] = wild-type, population parameter estimate
[11] = wild-type, population parameter estimate, listed as Eucalyptol

Compound: CC1CCC(C(C)C)C(O)C1 (centres unmarked) [menthol]
- IC50 [1]: 163 µM

Compound: CN1C2CCCC1CC(NC(=O)c1nn(C)c3ccccc13)C2 (centres unmarked) [granisetron]
- Effect on 5-HT-induced contractions [2]: substantially inhibited
- Effect on 5-HT-evoked contractions [3]: inhibited

Compound: CC(C)=CCCC(C)=CC=O (mixture of isomers) [citral]
- Agonist action when applied alone [4]: did not evoke currents; also recorded: no agonist action
- Reduction of inhibitory potency compared with wild-type receptors [4]: approximately 2 fold
- ΔpEC50 (ΔpIC50 for inhibitors, T6'S vs wild-type) [4]: −0.36 ± 0.10
- IC50 [4]: 282 µM
- Effect on agonist (5-HT) pEC50 (interpretation of nG hypothesis test) [5]: No evidence that citral changes agonist pEC50
- IC50 [5, 8]: 120 µM
- IC50 [5, 9]: 98 µM
- nH (inhibitor Hill coefficient) [5, 10]: 1.3
- nH (inhibitor Hill coefficient) ([5]; wild-type, population parameter estimate, listed as Citral): 1.34 ± 0.08
- Measured dual inhibition with bilobalide compared with predictions [6]: no different from the allotopic predictions
- Measured dual inhibition with diltiazem compared with predictions [6]: no different from the allotopic predictions
- Competition with G-FL binding [7]: unaffected; also recorded: no competition

Compound: CC12CCC(CC1)C(C)(C)O2 [eucalyptol]
- Agonist action when applied alone [4]: did not evoke currents; also recorded: no agonist action
- Effect on 5-HT pEC50 at T6'S [4]: did not alter the 5-HT pEC50
- Reduction of inhibitory potency compared with wild-type receptors [4]: approximately 2 fold
- ΔpEC50 (ΔpIC50 for inhibitors, T6'S vs wild-type) [4]: −0.45 ± 0.22
- IC50 [4]: 724 µM
- Kb [5]: 813 µM
- IC50 [5, 8]: 258 µM
- IC50 [5, 9]: 174 µM
- Effect on agonist (5-HT) pEC50 (interpretation of nG hypothesis test) ([5]; wild-type): Strong evidence that eucalyptol changes agonist pEC50
- nH (inhibitor Hill coefficient) [5, 10]: 1.0
- nS (Schild coefficient) [5, 10]: 1.7
- pA2 (shift in agonist pEC50) [5, 10]: 3.09
- nH (inhibitor Hill coefficient) [5, 11]: 1.04 ± 0.11
- nS (Schild coefficient) [5, 11]: 1.70 ± 0.24
- Measured dual inhibition with diltiazem compared with predictions [6]: greater than the allotopic prediction
- Competition with G-FL binding [7]: unaffected; also recorded: no competition

Compound: C=CC(C)(O)CCC=C(C)C (centres unmarked) [linalool]
- Agonist action when applied alone [4]: did not evoke currents; also recorded: no agonist action
- Reduction of inhibitory potency compared with wild-type receptors [4]: approximately 2 fold
- ΔpEC50 (ΔpIC50 for inhibitors, T6'S vs wild-type) [4]: −0.34 ± 0.04
- IC50 [4]: 309 µM
- IC50 [5, 8]: 141 µM
- IC50 [5, 9]: 83 µM
- Effect on agonist (5-HT) pEC50 (interpretation of nG hypothesis test) ([5]; wild-type): No/weak evidence that linalool changes agonist pEC50
- nH (inhibitor Hill coefficient) [5, 10]: 2.2
- nH (inhibitor Hill coefficient) ([5]; wild-type, population parameter estimate, listed as Linalool): 2.19 ± 0.26
- Measured dual inhibition with bilobalide compared with predictions [6]: greater than the allotopic prediction
- Measured dual inhibition with diltiazem compared with predictions [6]: greater than the allotopic prediction
- Competition with G-FL binding [7]: unaffected; also recorded: no competition

Compound: NCCc1c[nH]c2ccc(O)cc12 [5-HT, 5-hydroxytryptamine, reference compound]
- Increase in 5-HT sensitivity in the T6'S mutant [4]: 2 fold
- ΔpEC50 (T6'S vs wild-type) ([4]; agonist 5-HT): 0.35 ± 0.07
- 5-HT nH (agonist Hill coefficient) ([5]; wild-type): 2.94 ± 0.13
- Max (maximal 5-HT peak current) [5, 10]: 4.94 ± 0.64 µA
